Active and inactive are the calls of the source. Cut-off read from the data, not from the text of the source, for most assays here: actives have a measured IC50 and inactives only a lower limit.
Assays:
[1] = target: T1, RNA-binding protein pos-1 (Caenorhabditis elegans, UniProt G5EF15); experiment: disruptors of C. elegans POS-1 RNA interaction – biochemical, fluorescence polarization, dose response (AID 1964);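 note: purified POS-1 fused to maltose binding protein made in E. coli; potency of compounds blocking POS-1 binding to fluorescent RNA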
T1 sequence (G5EF15 whole entry): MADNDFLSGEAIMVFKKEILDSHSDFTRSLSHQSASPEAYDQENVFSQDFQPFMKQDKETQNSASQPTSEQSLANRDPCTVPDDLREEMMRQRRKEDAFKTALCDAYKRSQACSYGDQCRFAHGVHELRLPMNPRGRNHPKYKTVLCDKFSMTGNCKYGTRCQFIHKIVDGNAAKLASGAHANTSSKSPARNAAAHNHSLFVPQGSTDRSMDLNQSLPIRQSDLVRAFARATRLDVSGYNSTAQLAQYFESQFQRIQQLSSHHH

[2] = target: T2, Tyrosine-protein phosphatase non-receptor type 7 (Homo sapiens, UniProt P35236); assay type: functional
T2 sequence (P35236 whole entry): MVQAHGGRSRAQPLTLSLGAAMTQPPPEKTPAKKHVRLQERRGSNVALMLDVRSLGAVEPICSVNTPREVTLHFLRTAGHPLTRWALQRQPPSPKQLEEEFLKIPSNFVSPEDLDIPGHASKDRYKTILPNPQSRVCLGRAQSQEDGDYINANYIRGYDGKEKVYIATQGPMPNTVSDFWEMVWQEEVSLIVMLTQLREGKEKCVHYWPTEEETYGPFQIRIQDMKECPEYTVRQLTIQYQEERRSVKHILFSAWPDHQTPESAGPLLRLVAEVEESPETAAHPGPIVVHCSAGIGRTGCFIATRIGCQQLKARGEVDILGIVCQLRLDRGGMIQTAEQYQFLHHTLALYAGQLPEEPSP

[3] = target: T3, Zinc finger protein mex-5 (Caenorhabditis elegans, UniProt Q9XUB2); experiment: potency of MEX-5 RNA-binding blockers – biochemical, C. elegans, fluorescence polarization, dose response (AID 1960)
T3 sequence (Q9XUB2 whole entry): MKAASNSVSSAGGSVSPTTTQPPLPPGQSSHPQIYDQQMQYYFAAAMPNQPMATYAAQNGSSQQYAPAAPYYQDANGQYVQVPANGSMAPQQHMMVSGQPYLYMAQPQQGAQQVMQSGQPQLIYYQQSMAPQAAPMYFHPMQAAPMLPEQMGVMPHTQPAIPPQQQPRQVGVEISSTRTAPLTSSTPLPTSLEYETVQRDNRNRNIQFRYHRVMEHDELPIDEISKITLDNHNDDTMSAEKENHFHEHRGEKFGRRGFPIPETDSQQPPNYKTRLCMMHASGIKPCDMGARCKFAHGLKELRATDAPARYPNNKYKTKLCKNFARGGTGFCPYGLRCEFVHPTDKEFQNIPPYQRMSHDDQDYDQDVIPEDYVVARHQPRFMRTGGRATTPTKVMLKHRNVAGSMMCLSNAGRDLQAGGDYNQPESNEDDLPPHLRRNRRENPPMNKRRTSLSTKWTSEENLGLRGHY

[4] = target: T4, Tyrosine-protein phosphatase non-receptor type 22 (Homo sapiens, UniProt Q9Y2R2); assay type: functional
T4 sequence (Q9Y2R2 whole entry): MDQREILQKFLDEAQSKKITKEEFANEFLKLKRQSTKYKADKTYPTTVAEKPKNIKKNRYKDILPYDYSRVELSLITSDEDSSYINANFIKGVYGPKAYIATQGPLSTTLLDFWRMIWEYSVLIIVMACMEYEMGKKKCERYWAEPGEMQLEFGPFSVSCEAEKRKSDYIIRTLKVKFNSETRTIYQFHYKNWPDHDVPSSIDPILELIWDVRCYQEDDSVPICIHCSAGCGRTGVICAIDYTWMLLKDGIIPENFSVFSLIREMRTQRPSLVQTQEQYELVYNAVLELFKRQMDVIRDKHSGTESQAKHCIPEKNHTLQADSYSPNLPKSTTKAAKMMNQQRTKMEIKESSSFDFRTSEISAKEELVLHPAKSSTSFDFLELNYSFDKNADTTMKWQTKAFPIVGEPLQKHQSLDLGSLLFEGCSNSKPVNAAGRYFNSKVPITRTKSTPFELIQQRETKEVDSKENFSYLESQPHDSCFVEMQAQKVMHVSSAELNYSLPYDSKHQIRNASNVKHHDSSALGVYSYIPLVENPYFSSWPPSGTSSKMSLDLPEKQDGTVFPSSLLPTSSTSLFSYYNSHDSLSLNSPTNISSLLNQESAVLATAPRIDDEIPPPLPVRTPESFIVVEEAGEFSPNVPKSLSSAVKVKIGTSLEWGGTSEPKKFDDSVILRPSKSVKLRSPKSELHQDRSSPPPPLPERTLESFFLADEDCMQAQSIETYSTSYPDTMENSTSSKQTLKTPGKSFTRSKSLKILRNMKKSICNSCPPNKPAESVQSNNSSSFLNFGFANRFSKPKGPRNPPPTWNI

[5] = target: T4, Tyrosine-protein phosphatase non-receptor type 22; assay type: functional; remark: listed apart in the source
SUMO-activating enzyme [6] = target: T5, SUMO-activating enzyme (Homo sapiens, UniProt Q9UBT2); experiment: blockers of UBC9-mediated SUMO conjugation – biochemical, AlphaScreen, SUMOylation inhibitor project, confirmation (AID 2018); assay type: functional
T5 sequence (Q9UBE0 whole entry): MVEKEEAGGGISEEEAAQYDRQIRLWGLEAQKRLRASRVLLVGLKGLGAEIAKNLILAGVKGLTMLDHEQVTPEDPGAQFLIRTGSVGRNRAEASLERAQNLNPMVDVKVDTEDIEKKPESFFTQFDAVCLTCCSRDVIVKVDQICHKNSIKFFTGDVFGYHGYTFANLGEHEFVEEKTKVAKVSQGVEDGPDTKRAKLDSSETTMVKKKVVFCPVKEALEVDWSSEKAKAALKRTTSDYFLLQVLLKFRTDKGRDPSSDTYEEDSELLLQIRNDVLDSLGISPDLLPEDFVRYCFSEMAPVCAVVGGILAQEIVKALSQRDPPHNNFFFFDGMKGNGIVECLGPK
T5 sequence (Q9UBT2 whole entry): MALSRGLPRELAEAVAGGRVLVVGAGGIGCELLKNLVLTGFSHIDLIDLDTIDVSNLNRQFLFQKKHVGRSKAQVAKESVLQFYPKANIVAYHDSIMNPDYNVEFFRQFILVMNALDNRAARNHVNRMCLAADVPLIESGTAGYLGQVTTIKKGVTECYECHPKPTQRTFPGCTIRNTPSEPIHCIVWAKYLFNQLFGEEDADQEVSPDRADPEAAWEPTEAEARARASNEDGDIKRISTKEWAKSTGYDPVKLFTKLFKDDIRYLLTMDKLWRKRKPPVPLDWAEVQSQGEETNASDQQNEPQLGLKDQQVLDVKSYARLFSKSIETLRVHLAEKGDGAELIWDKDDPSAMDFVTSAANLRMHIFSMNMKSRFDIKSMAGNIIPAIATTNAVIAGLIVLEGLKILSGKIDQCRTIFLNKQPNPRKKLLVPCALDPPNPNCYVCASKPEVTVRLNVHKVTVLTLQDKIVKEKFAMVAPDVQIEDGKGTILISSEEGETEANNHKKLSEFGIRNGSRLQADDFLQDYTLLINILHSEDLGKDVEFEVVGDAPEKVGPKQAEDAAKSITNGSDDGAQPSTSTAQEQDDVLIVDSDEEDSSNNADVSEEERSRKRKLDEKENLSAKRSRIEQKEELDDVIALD

SUMO-activating enzyme [7] = target: T5, SUMO-activating enzyme; experiment: blockers of SAE1/SAE2–UBC9 SUMO transfer – biochemical, HTRF, uHTS, primary screen (AID 2006); assay type: protein-complex assay
SUMO E1/E2 = SUMO E1/E2 (Homo sapiens, UniProt P63279+Q9UBE0+Q9UBT2); experiment: SAR analysis of SUMOylation using HTRF in an in-Vitro dose response assay. [Related pubchem assays (depositor defined):AID2006, AID2011, AID2018, AID2069, AID2658]; assay type: functional
Chain of SUMO E1/E2 (Q9UBE0 whole entry, the tested form may be a part): as the sequence (Q9UBE0 whole entry) above
Chain of SUMO E1/E2 (Q9UBT2 whole entry, the tested form may be a part): as the sequence (Q9UBT2 whole entry) above
Chain of SUMO E1/E2 (P63279 whole entry, the tested form may be a part): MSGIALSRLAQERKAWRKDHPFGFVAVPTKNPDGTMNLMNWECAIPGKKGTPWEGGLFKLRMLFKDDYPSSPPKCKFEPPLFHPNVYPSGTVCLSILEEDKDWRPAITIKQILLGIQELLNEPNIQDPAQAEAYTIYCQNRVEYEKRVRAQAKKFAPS

[8] = target: T6, Carboxy-terminal domain RNA polymerase II polypeptide A small phosphatase 1 (Homo sapiens, UniProt Q9GZU7); experiment: CTDSP1 inhibitors, concentration-response, biochemical, absorbance readout, ultra-high-throughput screen actives (AID 540297); assay type: functional
T6 sequence (Q9GZU7 whole entry): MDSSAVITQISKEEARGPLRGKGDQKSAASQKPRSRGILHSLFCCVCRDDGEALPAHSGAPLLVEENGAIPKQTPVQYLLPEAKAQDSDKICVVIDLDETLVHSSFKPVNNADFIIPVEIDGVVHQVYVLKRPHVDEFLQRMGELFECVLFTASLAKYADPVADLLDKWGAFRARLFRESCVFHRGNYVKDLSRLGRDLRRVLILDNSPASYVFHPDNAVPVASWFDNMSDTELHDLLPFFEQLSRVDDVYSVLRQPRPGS

[9] = target: Alkaline phosphatase, placental type (Homo sapiens, UniProt P05187); experiment: human placental alkaline phosphatase inhibition – biochemical, luminescence, confirmation (AID 1512); assay type: functional
Chain of Alkaline phosphatase, placental type (P05187 whole entry): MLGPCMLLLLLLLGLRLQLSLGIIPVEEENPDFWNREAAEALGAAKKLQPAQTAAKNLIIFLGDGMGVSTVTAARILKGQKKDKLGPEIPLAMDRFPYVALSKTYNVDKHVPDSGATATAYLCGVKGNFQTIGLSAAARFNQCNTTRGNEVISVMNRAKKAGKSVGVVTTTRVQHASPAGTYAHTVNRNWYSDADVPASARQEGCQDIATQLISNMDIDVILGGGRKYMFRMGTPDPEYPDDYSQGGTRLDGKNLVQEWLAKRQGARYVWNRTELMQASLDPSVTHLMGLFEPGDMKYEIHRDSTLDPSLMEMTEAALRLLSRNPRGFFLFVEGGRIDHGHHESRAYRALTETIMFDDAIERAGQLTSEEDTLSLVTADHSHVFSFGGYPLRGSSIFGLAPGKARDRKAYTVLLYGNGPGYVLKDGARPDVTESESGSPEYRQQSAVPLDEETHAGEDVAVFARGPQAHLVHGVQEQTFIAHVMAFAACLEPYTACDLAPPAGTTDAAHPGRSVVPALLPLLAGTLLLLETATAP

[10] = target: T7, Alkaline phosphatase, tissue-nonspecific isozyme (Homo sapiens, UniProt P05186); experiment: potency against alkaline phosphatase TNAP – biochemical, luminescent, dose response, SAR follow-up (AID 1056)
T7 sequence (P05186 whole entry): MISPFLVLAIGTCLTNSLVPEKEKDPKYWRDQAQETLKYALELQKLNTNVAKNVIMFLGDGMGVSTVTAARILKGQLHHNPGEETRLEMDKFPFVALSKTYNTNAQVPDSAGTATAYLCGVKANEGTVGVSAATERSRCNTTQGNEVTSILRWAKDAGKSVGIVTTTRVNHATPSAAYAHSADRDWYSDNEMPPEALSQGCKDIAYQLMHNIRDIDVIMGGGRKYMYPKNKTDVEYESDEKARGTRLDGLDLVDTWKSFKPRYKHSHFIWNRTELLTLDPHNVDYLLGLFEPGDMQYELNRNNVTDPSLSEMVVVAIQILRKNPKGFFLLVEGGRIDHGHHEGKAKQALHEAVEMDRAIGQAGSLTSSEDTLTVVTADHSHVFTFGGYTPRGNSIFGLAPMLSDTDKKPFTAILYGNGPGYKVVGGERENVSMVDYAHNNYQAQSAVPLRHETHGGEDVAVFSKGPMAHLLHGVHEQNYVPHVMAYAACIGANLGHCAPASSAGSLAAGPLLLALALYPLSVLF

HEK293 [11] = experiment: inhibition of NOD1-driven NF-kB reporter – cell-based, luminescence, uHTS, primary screen (AID 1578); assay type: functional; details: Homo sapiens
HEK293 [12] = experiment: cells; assay type: functional, cell-based; details: Homo sapiens
HEK293 [13] = experiment: cells; assay type: functional, cell-based; details: Homo sapiens; remark: listed apart in the source
HEK293 [14] = experiment: NOD2 signaling inhibitors in MDP-stimulated cells, cell-based, uHTS, luminescence (AID 2001); assay type: functional; details: Homo sapiens
[15] = target: Nucleotide-binding oligomerization domain-containing protein 2 (Homo sapiens, UniProt Q9HC29); experiment: inhibition of NOD2-driven NF-kB reporter – cell-based, luminescence, uHTS, HEK293 (AID 1566); assay type: functional
Chain of Nucleotide-binding oligomerization domain-containing protein 2 (Q9HC29 whole entry, the tested form may be a part): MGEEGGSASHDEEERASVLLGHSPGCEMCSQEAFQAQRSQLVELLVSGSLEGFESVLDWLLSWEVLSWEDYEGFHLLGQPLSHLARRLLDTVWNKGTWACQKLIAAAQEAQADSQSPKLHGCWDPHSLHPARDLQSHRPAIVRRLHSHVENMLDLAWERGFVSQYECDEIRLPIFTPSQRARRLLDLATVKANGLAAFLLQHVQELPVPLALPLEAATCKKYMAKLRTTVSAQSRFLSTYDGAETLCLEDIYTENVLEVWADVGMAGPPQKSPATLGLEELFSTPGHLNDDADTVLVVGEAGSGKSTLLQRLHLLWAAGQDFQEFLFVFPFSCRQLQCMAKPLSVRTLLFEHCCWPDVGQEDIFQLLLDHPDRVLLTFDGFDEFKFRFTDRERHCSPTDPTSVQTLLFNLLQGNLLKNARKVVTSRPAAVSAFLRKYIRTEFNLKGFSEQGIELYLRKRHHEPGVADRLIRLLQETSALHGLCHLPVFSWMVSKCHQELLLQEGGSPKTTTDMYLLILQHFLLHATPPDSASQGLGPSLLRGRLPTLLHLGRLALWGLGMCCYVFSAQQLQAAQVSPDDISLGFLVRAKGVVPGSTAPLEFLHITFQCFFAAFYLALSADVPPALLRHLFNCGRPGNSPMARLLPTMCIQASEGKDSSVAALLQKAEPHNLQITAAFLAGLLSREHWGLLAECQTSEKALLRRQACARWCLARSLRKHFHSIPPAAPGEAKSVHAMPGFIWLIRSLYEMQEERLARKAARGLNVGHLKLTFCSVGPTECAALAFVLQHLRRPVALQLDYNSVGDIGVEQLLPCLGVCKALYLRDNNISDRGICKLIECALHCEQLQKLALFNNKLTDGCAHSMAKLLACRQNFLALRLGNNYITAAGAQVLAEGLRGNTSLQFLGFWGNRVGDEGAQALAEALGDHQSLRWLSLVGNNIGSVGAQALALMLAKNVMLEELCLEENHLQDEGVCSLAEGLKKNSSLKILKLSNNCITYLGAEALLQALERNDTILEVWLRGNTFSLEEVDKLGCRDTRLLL

HEK293 [16] = experiment: cells; assay type: functional, cell-based; details: Homo sapiens; remark: listed apart in the source
[17] = target: T8, Nucleotide-binding oligomerization domain-containing protein 1 (Homo sapiens, UniProt Q9Y239); experiment: blockers of NOD1 pathway activity – revised, SAR follow-up (AID 2333); assay type: functional
T8 sequence (Q9Y239 whole entry): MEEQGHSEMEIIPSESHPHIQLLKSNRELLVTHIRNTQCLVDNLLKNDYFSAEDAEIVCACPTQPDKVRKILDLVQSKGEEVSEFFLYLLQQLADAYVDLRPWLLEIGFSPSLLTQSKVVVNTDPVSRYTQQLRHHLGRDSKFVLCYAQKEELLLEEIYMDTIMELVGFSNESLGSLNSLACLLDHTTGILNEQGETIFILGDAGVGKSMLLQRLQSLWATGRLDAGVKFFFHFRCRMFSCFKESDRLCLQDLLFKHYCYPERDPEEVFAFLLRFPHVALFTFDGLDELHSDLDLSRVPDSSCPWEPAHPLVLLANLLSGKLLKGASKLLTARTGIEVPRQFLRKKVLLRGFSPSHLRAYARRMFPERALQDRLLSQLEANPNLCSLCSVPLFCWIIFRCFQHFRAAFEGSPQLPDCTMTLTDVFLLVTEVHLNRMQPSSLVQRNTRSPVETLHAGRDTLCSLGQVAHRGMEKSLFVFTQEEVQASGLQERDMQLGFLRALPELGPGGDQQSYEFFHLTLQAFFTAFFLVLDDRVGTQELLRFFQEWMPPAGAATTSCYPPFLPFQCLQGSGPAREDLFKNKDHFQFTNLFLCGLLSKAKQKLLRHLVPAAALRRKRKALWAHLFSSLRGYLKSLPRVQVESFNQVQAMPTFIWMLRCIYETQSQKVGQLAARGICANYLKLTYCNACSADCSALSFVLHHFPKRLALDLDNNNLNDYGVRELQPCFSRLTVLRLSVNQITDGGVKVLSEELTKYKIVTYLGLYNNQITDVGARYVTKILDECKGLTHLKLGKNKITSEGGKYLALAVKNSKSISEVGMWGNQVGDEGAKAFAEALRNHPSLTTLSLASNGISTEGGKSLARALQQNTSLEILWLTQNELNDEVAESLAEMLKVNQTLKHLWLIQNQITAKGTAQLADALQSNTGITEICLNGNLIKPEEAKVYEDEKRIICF

[18] = reduction of Shn3 3'UTR-driven luciferase in osteoblasts – cell-based, Clone20 osteoblasts, firefly luciferase, cherry-picked, dose response (AID 624132); assay type: functional;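 note: firefly luciferase luminescence from reporter carrying the Shn3 3'UTR in osteoblasts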
[19] = loss of viability in HepG2 cells – cell-based, CellTiter-Glo, cherry-picked, cytotoxicity control for Shn3 inhibitor project, dose response (AID 624134); assay type: functional
[20] = non-specific 3'UTR reporter inhibition in Clone20-Shn3RL – cell-based, Renilla luciferase, cherry-picked, counter-screen for Shn3 inhibitor project, dose response (AID 624133); assay type: functional
[21] = target: Lysine-specific demethylase 4C (Homo sapiens, UniProt Q9H3R0); experiment: inhibition of JMJD2C H3K9me3 demethylation – biochemical, DELFIA europium, cherry-picked samples, dose response (AID 488835); assay type: functional
Chain of Lysine-specific demethylase 4C (Q9H3R0 whole entry): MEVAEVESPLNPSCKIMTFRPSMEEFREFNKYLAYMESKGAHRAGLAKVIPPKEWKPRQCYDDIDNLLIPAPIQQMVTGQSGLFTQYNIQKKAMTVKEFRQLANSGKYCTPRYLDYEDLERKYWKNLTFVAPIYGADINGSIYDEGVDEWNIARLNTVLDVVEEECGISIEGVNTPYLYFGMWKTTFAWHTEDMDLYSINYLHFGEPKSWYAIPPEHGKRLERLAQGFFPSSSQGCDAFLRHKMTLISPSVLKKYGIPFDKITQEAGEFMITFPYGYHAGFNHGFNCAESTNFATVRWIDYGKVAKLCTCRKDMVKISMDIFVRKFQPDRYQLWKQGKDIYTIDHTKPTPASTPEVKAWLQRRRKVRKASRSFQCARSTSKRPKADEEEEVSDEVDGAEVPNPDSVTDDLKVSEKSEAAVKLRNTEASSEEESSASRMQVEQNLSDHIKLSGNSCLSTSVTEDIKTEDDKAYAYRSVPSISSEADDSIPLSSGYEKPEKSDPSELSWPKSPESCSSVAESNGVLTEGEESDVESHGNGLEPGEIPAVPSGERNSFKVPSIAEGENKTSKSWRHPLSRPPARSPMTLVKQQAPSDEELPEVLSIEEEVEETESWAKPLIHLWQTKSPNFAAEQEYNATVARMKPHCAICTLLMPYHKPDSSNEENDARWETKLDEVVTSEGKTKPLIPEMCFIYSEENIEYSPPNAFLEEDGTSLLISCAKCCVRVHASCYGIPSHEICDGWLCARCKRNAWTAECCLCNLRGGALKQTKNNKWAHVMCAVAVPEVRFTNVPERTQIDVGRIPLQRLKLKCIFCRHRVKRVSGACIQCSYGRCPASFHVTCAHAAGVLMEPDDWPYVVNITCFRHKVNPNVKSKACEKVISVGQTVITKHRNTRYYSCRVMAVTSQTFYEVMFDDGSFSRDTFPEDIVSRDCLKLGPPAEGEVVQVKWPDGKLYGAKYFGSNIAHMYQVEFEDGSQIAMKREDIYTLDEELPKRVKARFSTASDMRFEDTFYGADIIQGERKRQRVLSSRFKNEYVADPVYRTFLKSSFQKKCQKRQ

## COCCn1c(=N)c(S(=O)(=O)c2ccc(Br)cc2)cc2c(=O)n3ccccc3nc21
[1]
  EC50: > 300 µM (inconclusive)
[2]
  IC50: > 79.4 µM (inactive)
[3]
  EC50: 4.16 µM (active)
[4]
  IC50: > 79.4 µM (inactive)
[5]
  IC50: > 79.4 µM (inactive)

## COc1ccc(Cl)cc1-c1nc(N)nc(NC2CCCCC2)n1
[2]
  IC50: > 79.4 µM (inactive)
[4]
  IC50: > 79.4 µM (inactive)
[5]
  IC50: > 79.4 µM (inactive)

## Cc1ccccc1NC(=O)Cn1c(O)c(N=NC(=O)c2ccccc2O)c2ccccc21
SUMO-activating enzyme [6]
  IC50: 8.06 µM (active)
SUMO-activating enzyme [7]
  IC50: 9.83 µM (active)
SUMO E1/E2
  IC50: 49.7 µM (active)
[8]
  IC50: 1.23 µM (active)

## COc1ccc(-c2cc(C(=O)NCCc3ccc(O)c(O)c3)c3ccccc3n2)cc1
[9]
  IC50: > 100 µM (inactive)
[10]
  IC50: > 100 µM (inactive)

## CN(C)S(=O)(=O)N1CCC(Oc2cccc(C(=O)NC3CCCCC3)c2)CC1
HEK293 [11]
  EC50: 6.77 µM (active)
HEK293 [12]
  IC50: 11.3 µM (active)
HEK293 [13]
  IC50: 18.8 µM (active)
HEK293 [14]
  IC50: 17.5 µM (inactive)

## CCOc1ccc(-n2c(SCC(=O)c3ccc(O)c(O)c3)nnc2-c2ccc(OC)cc2)cc1
[9]
  IC50: > 100 µM (inactive)
[10]
  IC50: > 100 µM (inactive)

## CC1=C(C(=O)NC2CCCc3c2cnn3-c2cccc(C)c2C)OCCO1 (stereo not given)
HEK293 [11]
  EC50: 5.36 µM (active)
[15]
  EC50: > 20 µM (inactive)
HEK293 [14]
  IC50: 11.6 µM (inactive)
HEK293 [16]
  IC50: > 20 µM (inactive)
[17]
  IC50: 4.06 µM (active)
[18]
  AC50: 3.49 µM (active)
[19]
  AC50: 34.1 µM (active)
[20]
  AC50: 3.14 µM (active)

## COc1cc(CC2C(=O)N(C)C(=O)N(C)C2=O)ccc1OCc1ccccc1
[21]
  AC50: 7.97 µM (active)

## O=c1cc(N2CCc3ccccc32)[nH]c(=O)n1-c1ccccc1
[21]
  AC50: 20.7 µM (active)
